For the series, the target named is T1, Human TLR7 (Homo sapiens, UniProt Q9NYK1).
T1 construct: expressed in transfected cells; host or cells: HEK293 (ATCC No. CRL-1573)
T1 sequence (Q9NYK1 27-1049): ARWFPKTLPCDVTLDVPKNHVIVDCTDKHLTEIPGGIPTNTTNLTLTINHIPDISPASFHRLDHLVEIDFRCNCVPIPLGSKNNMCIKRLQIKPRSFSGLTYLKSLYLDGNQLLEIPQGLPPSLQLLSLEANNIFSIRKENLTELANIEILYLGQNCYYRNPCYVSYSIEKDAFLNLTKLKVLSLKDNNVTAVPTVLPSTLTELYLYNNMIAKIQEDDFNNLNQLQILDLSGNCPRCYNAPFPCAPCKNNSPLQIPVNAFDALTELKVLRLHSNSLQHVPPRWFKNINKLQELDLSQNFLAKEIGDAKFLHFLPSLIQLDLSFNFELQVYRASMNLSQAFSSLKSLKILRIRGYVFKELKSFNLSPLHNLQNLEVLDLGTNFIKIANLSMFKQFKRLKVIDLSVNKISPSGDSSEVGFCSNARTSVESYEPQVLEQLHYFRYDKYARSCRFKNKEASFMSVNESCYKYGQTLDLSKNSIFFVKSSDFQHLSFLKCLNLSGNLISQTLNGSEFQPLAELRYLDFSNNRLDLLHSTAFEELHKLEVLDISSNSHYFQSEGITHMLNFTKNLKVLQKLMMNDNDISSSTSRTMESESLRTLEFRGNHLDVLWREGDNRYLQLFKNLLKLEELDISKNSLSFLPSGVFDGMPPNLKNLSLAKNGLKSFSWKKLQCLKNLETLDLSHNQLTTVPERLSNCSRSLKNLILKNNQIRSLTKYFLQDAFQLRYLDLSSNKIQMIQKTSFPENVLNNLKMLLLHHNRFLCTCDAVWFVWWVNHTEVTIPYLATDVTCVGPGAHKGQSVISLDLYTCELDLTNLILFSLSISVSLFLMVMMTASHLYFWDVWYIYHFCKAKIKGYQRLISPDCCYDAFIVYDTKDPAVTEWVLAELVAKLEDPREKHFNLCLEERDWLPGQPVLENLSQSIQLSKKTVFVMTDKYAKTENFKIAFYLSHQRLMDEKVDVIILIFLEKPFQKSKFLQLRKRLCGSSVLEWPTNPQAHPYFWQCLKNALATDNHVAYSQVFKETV
The experiment in a line: NFκB luciferase induction in HEK293 cells transfected with human TLR7. It is filed as cell-based. As to conditions: transfected HEK293 cell line; poly(T), poly(A) or poly(C) oligonucleotide with 3 μM IRM1; overnight.

“Also recorded” adds a separate entry of the source. Oligonucleotides are written 5' to 3', each unit as a sugar letter and its base; * is a phosphorothioate linkage, no mark a phosphodiester; rarer units and linkages stand in square brackets, end groups in braces. Plain capitals give the bases only. d = 2'-deoxy (DNA)

Description: Human TLR7 and NFκβ were transfected into human epithelial kidney 293 (HEK293, American Type Culture Collection, Manassas, Va., ATCC No. CRL-1573) cells as described in U.S. Patent Publication Nos. U82004/0014779 and US2004/0171086. The selected transfected cells were counted and resuspended to a concentration of 5×10^5 cell per mL in culture media.
Cultured media was prepared from complete DMEM media (Biosource International Inc., Camarillo, Calif.), without phenol red. Fetal bovine serum (Biosource International Inc.) was added to a final concentration of 10% (vol/vol.), sodium pyruvate (Biosource International Inc.) was added to 1 mM; L-glutamine (Biosource International Inc.) was added to 2 mM; penicillin (Biosource International Inc.) was added to 100 U/mL; streptomycin (Biosource International Inc.) was added to 100 μg/mL.
100 μL aliquots of cells were placed in the wells of a white-walled, white-bottomed 96-well plate (Corning, Inc. Corning, N.Y.). […] As a negative control, some cell aliquots were incubated without a stimulus (media control). In all cases, the cells were incubated overnight at 37° C. with 5% CO2 and 98% humidity.
After the cells incubated overnight, 100 μL volume of reconstituted LucLight Plus (Packard Instruments, Meriden, Conn.) was added to each aliquot of cells. Each well of the plate was read on a L-max luminometer (Molecular Devices, Sunnyvale, Calif.). The data is expressed as fold increase of luciferase induction in cell aliquots incubated with the indicated stimulant compared to the negative control.
HEK293 cells expressing human TLR7 were prepared as described in Example 1. […] As a negative control, some cell aliquots were incubated without a stimulus (media control).
After the cells incubated overnight, the cells were analyzed as described in Example 1. The data is expressed as fold increase of luciferase induction in cell aliquots incubated with the indicated stimulant compared to the negative control.

In the case of “poly(A): 18-mer poly(A) oligonucleotide, 5′-AAAAAAAAAAAAAAAAAA-3′ (dA*dA*dA*dA*dA*dA*dA*dA*dA*dA*dA*dA*dA*dA*dA*dA*dA*dA)”, the “inhibition of smIRM-induced TLR7-mediated biological activity (fold increase of luciferase induction)” value is “inhibition; also recorded: capable of limiting TLR7-mediated biological activity”.

As to “poly(T): 18-mer poly(T) oligonucleotide, 5′-TTTTTTTTTTTTTTTTTT-3′”, the “inhibition of smIRM-induced TLR7-mediated biological activity (fold increase of luciferase induction)” value was “inhibition; also recorded: capable of limiting TLR7-mediated biological activity”.

The record behind these values is patent publication US20110070575A1, “Immunomodulatory Compositions, Combinations and Methods” (Coley Pharmaceutical Group, Inc., priority 2004, published 2011).
